The inhibition is how much of the control response was suppressed. In general, melting point refers to the temperature, or range, at which the solid turns liquid. As a reminder, the IC50 is the concentration needed to halve the response being measured.

This is an account of results in PMC3538727, “Design, Synthesis and Biological Evaluation of Novel Piperazine Derivatives as CCR5 Antagonists” (PLoS ONE, 2013).

One series concerns the target T1, CCR5 (Homo sapiens, UniProt P51681).
T1 construct: expressed in transfected cells
The series can be described thus: Cell-cell fusion assay (CCF assay, CCR5-mediated fusion). The following applies: for inhibition at 10 µM: CCR5, read-out: inhibition rate (10 µM), CCR5 fusion activity; for inhibition at 10 µM / IC50 / inhibition rate (10 µM), CCR5 fusion activity: mean of at least two experiments, DMSO as negative control; for fold loss of CCR5 fusion potency in comparison to 9e: relative to 9e. Format: cell-based. An excerpt: A total of 21 novel piperazine derivatives 9a–h, 13a–d, 17, and 23a–h were screened for their inhibitory activity against cell-cell fusion between target cells expressing CD4/CCR5 and effector cells expressing the envelope protein of HIV-1, gp-120 (fusion assay).
Effector cell line: This cell line express HIV envelope protein gp160 and chimera protein Rn-Dn. Rn-Dn is consist of the N terminal of renilla luciferase and the N terminal of DnaE intein from Anacystis nidulans R2 PCC7942.
Target cell line: This cell line express chemokine receptor 5(CCR5), CD4 protein and chimera protein Dc-Rc. Dc-Rc is consist of the C teminal of renilla luceferase and the C teminal of NnaE intein from Anacystis nidulans R2 PCC7942.
The cell-cell fusion assay was performed as described previously.The effector cells were plated in 24 well white culture plates at 7.5×10^4 cell per well in DMEM supplemented with 10% FBS, 800 µg/mL G418. The target cells in the growth medium were then added to the plates at 7.5×10^4 cells/50 µL/well and incubated for 5 hours. At the end of coculture, 70 µL of renilla luceferase assay lysis was added into each well, and the cultures were gently shaken for 15 min. At the same time, add 20 µl of Renilla Luciferase Assay Reagent to the luminometer tube. Add 20 µl of cell lysate to the tube. Mix quickly by flicking the tube for 1 second. Place the tube in FB12 luminometer and initiate measurement. Luminescence was integrated over 1 second with a 2-second delay. When small molecule compounds needed to be added to the CCF assay system, the compounds were diluted manually in DMSO. Then, 10 µL of the diluted compounds was added to the effector cells just before the addition of target cells, thus making the final concentration of DMSO in the coculture 0.5%.

Series [1] concerns recombinant HIV-1 virus pseudotyped with the envelope proteins of the CCR5-tropic virus. The series is described as follows: microbe, parasite or virus in culture. Format: cell-based. The following applies: for inhibition at 10 µM: Human immunodeficiency virus 1, SUP-T1, read-out: inhibition rate (10 µM), antiviral activity. How it is done:
Fluorophenyl analogs 9e–g, phenyl, chlorophenyl, and trifluorophenyl analog 23a–c, and cyclohexyl analog 23 h were evaluated for their anti-HIV activity using a recombinant HIV-1 virus pseudotyped with the envelope proteins of the CCR5-tropic virus (HIV-1 single cycle antiviral assay). For overall estimation of the therapeutic potential of these novel CCR5 antagonists, maraviroc was used as a positive control.
HIV-1 proviral indicator construct pNL-Luc-E- contains a full-length HIV-1 genome, in which env was replaced by firefly Luciferase coding sequence. pENV-Ad8 expresses R5-tropic envelope (AD8).
Single-cycle HIV-1 replication assays were performed as described previously. In brief, 4×10^5 293T cells were co-transfected with 0.4 µg of pNL-Luc-E- and 0.4 µg of pENV-R5. After 48h, the supernatant containing pseudovirion was harvested by filtration through a 0.45 µm filter and the amount of viral capsid protein was measured by p24 antigen capture ELISA (Biomerieux). The resultant supernatant (10 µL) was used to infect SupT1 cells (1×10^5) in 96-well plates in the presence of testing compound at the concentration indicated. The SupT1 cells were lysed 48h post-infection and firefly luciferase activities were determined using a firefly Luciferase Assay System (Promega). Values were normalized to the control group treated with DMSO, and represented relative infectivity of each sample testing.

Where [2] appears, read: mean of two experiments, DMSO as negative control.

“Also recorded” adds a separate entry of the source. Like-named read-outs stand apart in the source and are kept apart here.

T1 sequence (P51681 whole entry): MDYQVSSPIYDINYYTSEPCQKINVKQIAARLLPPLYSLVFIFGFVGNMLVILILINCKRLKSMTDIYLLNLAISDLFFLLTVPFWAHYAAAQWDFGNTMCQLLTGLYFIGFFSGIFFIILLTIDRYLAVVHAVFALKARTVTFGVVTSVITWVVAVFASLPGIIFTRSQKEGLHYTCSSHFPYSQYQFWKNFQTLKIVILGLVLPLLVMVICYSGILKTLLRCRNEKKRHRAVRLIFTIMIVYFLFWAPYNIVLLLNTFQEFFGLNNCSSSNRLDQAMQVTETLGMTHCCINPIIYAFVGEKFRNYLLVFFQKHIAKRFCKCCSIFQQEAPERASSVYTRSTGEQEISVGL

As for `CC(C)c1ccc(C(=O)NC(CCN2CCN(c3ccc(C#N)cc3)CC2)c2ccccc2)cc1` (centres unmarked) [Compound 23d], the melting point was 155 to 158 °C. The inhibition at 10 µM on CCR5 turned out to be 20%.

`O=C(NC(CCN1CCN(c2ccc(F)cc2)CC1)c1ccccc1)c1ccccc1` (centres unmarked) [Compound 9d] returned a melting point of 152 to 154 °C. Besides, the inhibition at 10 µM on CCR5 was 26%.

In the case of `N#Cc1ccc(N2CCN(CCC(NC(=O)C3CCN(C(=O)c4ccccc4)CC3)c3ccccc3)CC2)cc1` (centres unmarked) [Compound 23f], the melting point was in the range of 121 to 124 °C. Further, the inhibition at 10 µM at CCR5 was 15%.

As to `N#Cc1ccc(N2CCN(CCC(NC(=O)c3ccc(F)cc3)c3ccccc3)CC2)cc1` (centres unmarked) [Compound 9e], the melting point fell in the range of 160 to 162 °C. For the same molecule, the “inhibition rate (10 µM), antiviral activity” value in series [1] (setting [2]) is “weak anti-HIV activity”. Further, the inhibition at 10 µM in series [1] was 23.8%. This molecule also came in with an IC50 against CCR5 of 0.64 µM.

For `Cc1ccc(N2CCN(CCC(NC(=O)c3ccc(F)cc3)c3ccccc3)CC2)cc1` (centres unmarked) [Compound 9b], the melting point fell in the range of 171 to 173 °C. For the same molecule, the inhibition at 10 µM on CCR5 was 35%.

Consider `N#Cc1ccc(N2CCN(C(=O)CC(NC(=O)c3ccc(F)cc3)c3ccccc3)CC2)cc1` (centres unmarked) [Compound 13d, N-(3-(4-(4-cyanophenyl)piperazin-1-yl)-3-oxo-1-phenylpropyl)-4-fluoro-benzamide], for which the melting point was in the range of 98 to 102 °C. Also, the inhibition at 10 µM at CCR5 worked out at 25%.

Molecule `Cc1ccc(N2CCN(CCC(NC(=O)c3ccccc3)c3ccccc3)CC2)cc1` (centres unmarked) [Compound 9a] registered a melting point of 165 to 167 °C. In addition, the inhibition at 10 µM at CCR5 was 47%.

As for `O=C(NC(CCN1CCN(c2ccc(F)cc2)CC1)c1ccccc1)c1ccc(F)cc1` (centres unmarked) [Compound 9c], the melting point lay within 157 to 159 °C. The inhibition at 10 µM on CCR5 turned out to be 41%.

The molecule `N#Cc1ccc(N2CCN(CCC(NC(=O)c3ccc(Cl)cc3)c3ccccc3)CC2)cc1` (centres unmarked) [Compound 23b] had a melting point of 143 to 145 °C. The inhibition at 10 µM in series [1] came out at 29.9%. In addition, on CCR5, the IC50 was determined as 2.87 µM and the “fold loss of CCR5 fusion potency in comparison to 9e” value (“fold loss of CCR5 fusion potency” below) was found to be 5 fold.

On to `NC(=O)c1ccc(N2CCN(CCC(NC(=O)c3ccc(F)cc3)c3ccccc3)CC2)cc1` (centres unmarked) [Compound 9h], for which, on CCR5, the inhibition at 10 µM worked out at 20%.

For the molecule `N#Cc1ccc(CN2CCN(CCC(NC(=O)c3ccc(F)cc3)c3ccccc3)CC2)cc1` (centres unmarked) [Compound 13c], the melting point was in the range of 83 to 87 °C. Besides, on CCR5, the “inhibition rate (10 µM), CCR5 fusion activity” value is “inactive”.

In the case of `N#Cc1ccc(N2CCN(CCC(NC(=O)c3ccc(C(F)(F)F)cc3)c3ccccc3)CC2)cc1` (centres unmarked) [Compound 23c], the melting point is 158 to 160 °C. Further, the inhibition at 10 µM in series [1] came to 24.6%. At CCR5, the IC50 turned out to be 10 µM and the “fold loss of CCR5 fusion potency” value is 15 fold.

In turn, `N#Cc1ccc(N2CCN(CCC(NC(=O)c3ccco3)c3ccccc3)CC2)cc1` (centres unmarked) [Compound 23g] registered a melting point of 132 to 136 °C. For the same molecule, the “inhibition rate (10 µM), CCR5 fusion activity” value on CCR5 is “inactive”.

As to `N#CCc1ccc(N2CCN(CCC(NC(=O)c3ccc(F)cc3)c3ccccc3)CC2)cc1` (centres unmarked) [Compound 13a], the melting point is 115 to 119 °C. In addition, at CCR5, the “inhibition rate (10 µM), CCR5 fusion activity” value was “inactive”.

In the case of `N#Cc1ccc(N2CCN(CCC(NC(=O)C3CCCCC3)c3ccccc3)CC2)cc1` (centres unmarked) [Compound 23h], the IC50 in series [1] (Human immunodeficiency virus 1, SUP-T1, read-out: IC50 (µM), antiviral activity) was found to be 0.44 µM; at CCR5, 6.29 µM. Besides, the inhibition at 10 µM in series [1] came out at 66.5%.

`N#Cc1ccc(N2CCN(CCC(NC(=O)c3ccc(F)cc3)c3ccc(Cl)c(Cl)c3)CC2)cc1` (centres unmarked) [Compound 9g] had a melting point of 85 to 88 °C. Besides, the inhibition at 10 µM in series [1] was determined as 2.9%. Also, on CCR5, 10 µM corresponded to half-maximal inhibition (IC50) and the “fold loss of CCR5 fusion potency” value was “more than 15 fold”.

With `N#Cc1ccc(N2CCN(CCC(NC(=O)c3ccc(F)cc3)c3ccc(Cl)cc3)CC2)cc1` (centres unmarked) [Compound 9f], the melting point was 121 to 123 °C. The “inhibition rate (10 µM), antiviral activity” value in series [1] (setting [2]) is “inactive”. Further, at CCR5, the IC50 came to 3.7 µM and the “fold loss of CCR5 fusion potency” value is recorded as 5 fold.

maraviroc [reference compound]: the “inhibition rate (10 µM), antiviral activity” value in series [1] (setting [2]) was 96.8%. In series [1] (read-out: IC50 (µM), antiviral activity, mean of two experiments, DMSO as negative control), the IC50 is 0.0011 µM.

With `N#Cc1ccc(C(=O)N2CCN(CCC(NC(=O)c3ccc(F)cc3)c3ccccc3)CC2)cc1` (centres unmarked) [Compound 13b], the melting point is 80 to 84 °C. Further, the inhibition at 10 µM at CCR5 came to 22%.

Take `N#Cc1ccc(N2CCN(CCCN(C(=O)c3ccc(F)cc3)c3ccccc3)CC2)cc1` [Compound 17, N-(3-(4-(4-cyanophenyl)piperazin-1-yl)propyl)-4-fluoro-N-phenylbenzamide]: the melting point lay in the range of 82 to 84 °C. Also, at CCR5, the “inhibition rate (10 µM), CCR5 fusion activity” value was “inactive”.

For `CC(=O)N1CCC(C(=O)NC(CCN2CCN(c3ccc(C#N)cc3)CC2)c2ccccc2)CC1` (centres unmarked) [Compound 23e], the melting point lay within 100 to 105 °C. The “inhibition rate (10 µM), CCR5 fusion activity” value at CCR5 is “complete loss in fusion activity; also recorded: inactive”.

The molecule `N#Cc1ccc(N2CCN(CCC(NC(=O)c3ccccc3)c3ccccc3)CC2)cc1` (centres unmarked) [Compound 23a] gave a melting point of 152 to 155 °C. Moreover, in series [1], the inhibition at 10 µM turned out to be 28.9%. Further, at CCR5, the IC50 was 2.44 µM and the “fold loss of CCR5 fusion potency” value is given as 4 fold.
